pKi: −log10 of the molar value. Some results are limits rather than exact numbers.

In data set [1] the target is VMAT2 (human platelet homogenate) (Homo sapiens (Human), UniProt Q05940). The data set can be described thus: Human VMAT2 Ki, slightly modified competition binding procedure (Table 11).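 Also: competition binding with 90 min incubation at 25 °C, after which filter-retained radioligand was measured by scintillation counting.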 The settings on record: 10 nM 3H-dihydrotetrabenazine.
Protocol: Following incubation at 25° C. for 90 minutes, bound radioligand was collected by rapid filtration onto GF/B glass fiber filters using a Unifilter-96 Harvester (PerkinElmer). Filter plates were pre-treated with 0.1% polyethylenimine and allowed to dry overnight, and following harvesting the filter plates were washed with 800 d VMAT2 binding buffer. Bound radioligand was quantified by scintillation counting using a Topcount NXT (PerkinElmer).
A short description of data set [2]: In vitro human intestinal S9 hydrolysis assay (formation of compound 1-1). The settings on record: human intestinal S9, 1 uM, 37° C., up to 60 minutes.
Protocol: Compounds (1 uM) were incubated with pooled intestinal S9 subcellular preparations (0.5 mg/mL total protein) from SD rats and humans without the addition of protease inhibitor phenylmethylsulfonylflouride. Incubations were carried out in a potassium phosphate buffer (50 mM). All concentrations were relative to the final incubation volume of 125 uL. Incubations were conducted at 37° C. for 0, 5, 10, 20, 40 and 60 minutes in a water bath and terminated by rapid mixing with 150 uL of ice-cold acetonitrile containing 1% formic acid. Internal standard was added and proteins were precipitated and removed by centrifugation prior to LC/MS analysis.

VMAT2 (human platelet homogenate), sequence (Q05940 whole entry): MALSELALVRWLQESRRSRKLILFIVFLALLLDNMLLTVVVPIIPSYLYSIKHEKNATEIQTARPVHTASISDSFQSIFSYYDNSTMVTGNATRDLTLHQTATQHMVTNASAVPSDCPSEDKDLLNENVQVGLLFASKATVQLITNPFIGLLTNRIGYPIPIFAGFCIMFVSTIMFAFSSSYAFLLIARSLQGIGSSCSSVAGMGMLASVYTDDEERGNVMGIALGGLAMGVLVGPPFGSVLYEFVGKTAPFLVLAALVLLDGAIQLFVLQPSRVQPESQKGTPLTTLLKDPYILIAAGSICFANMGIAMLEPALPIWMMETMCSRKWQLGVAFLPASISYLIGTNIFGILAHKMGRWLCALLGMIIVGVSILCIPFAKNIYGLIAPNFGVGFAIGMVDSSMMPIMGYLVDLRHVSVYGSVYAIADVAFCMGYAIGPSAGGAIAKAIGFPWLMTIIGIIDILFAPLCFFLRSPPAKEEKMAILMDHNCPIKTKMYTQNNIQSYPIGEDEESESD

For `COc1cc2c(cc1OC)[C@H]1C[C@@H](COC(=O)NC3(C(=O)O)CCCCC3)[C@H](CC(C)C)CN1CC2` [Compound 5-23, l-[({[(2R,3S,11bR)-9,10-dimethoxy-3-(2-methylpropyl)-1H,2H,3H,4H,6H,7H,11bH-pyrido[2,1-a]isoquinolin-2-yl]methoxy}carbonyl)amino]cyclohexane-1-carboxylic acid], the pKi in data set [1] is 6.30 to 8.00. Also, the “S9 Assay (ability to form compound 1-1)” value in data set [2] was “++”.

For the compound `COc1cc2c(cc1OC)[C@H]1C[C@@H](COC(=O)CCCC(=O)O)[C@H](CC(C)C)CN1CC2` [Compound 3-8, 5-{[(2R,3S,11bR)-9,10-dimethoxy-3-(2-methylpropyl)-1H,2H,3H,4H,6H,7H,11 bH-pyrido[2,1 a]isoquinolin-2-yl]methoxy}-5-oxopentanoic acid], the pKi in data set [1] was 6.30 to 8.00. In data set [2], the “S9 Assay (ability to form compound 1-1)” value is on record as “+++”.

Turning to `COc1cc2c(cc1OC)[C@H]1C[C@@H](COC(=O)N3C[C@@H]4C[C@H]3CN4)[C@H](CC(C)C)CN1CC2` [Compound 6-10, [(2R,3S,11bR)-9,10-dimethoxy-3-(2-methylpropyl)-1H,2H,3H,4H,6H,7H,11bH-pyrido[2,1-a]isoquinolin-2-yI]methyl (1S,4S)-2,5-diazabicyclo[2.2.1]heptane-2-carboxylate], the pKi in data set [1] is > 8.00. Also, the “S9 Assay (ability to form compound 1-1)” value in data set [2] was “+”.

`COc1cc2c(cc1OC)[C@H]1C[C@@H](COC(=O)N[C@@H](CC(C)C)C(=O)O)[C@H](CC(C)C)CN1CC2` [Compound 5-20, (2S)-2-[({[(2R,3S,11bR)-9,10-dimethoxy-3-(2-methylpropyl)-1H,2H,3H,4H,6H,7H,11bH-pyrido[2,1-a]isoquinolin-2-yl]methoxy}carbonyl)amino]-4-methylpentanoic acid] showed a pKi in data set [1] of 6.30 to 8.00. Also, the “S9 Assay (ability to form compound 1-1)” value in data set [2] is given as “++”.

`COc1cc2c(cc1OC)[C@H]1C[C@@H](COC(=O)CCCN)[C@H](CC(C)C)CN1CC2` [Compound 4-31, [(2R,3S,11bR)-9,10-dimethoxy-3-(2-methylpropyl)-1H,2H,3H,4H,6H,7H,11bH-pyrido[2,1-a]isoquinolin-2-yl]methyl 4-aminobutanoate]: the pKi in data set [1] is > 8.00. In addition, in data set [2], the “S9 Assay (ability to form compound 1-1)” value was “++”.

As for `COc1cc2c(cc1OC)[C@H]1C[C@@H](COC(=O)N3CC(C)NC(C)C3)[C@H](CC(C)C)CN1CC2` (stereo partly drawn) [Compound 6-11, [(2R,3S,11bR)-9,10-dimethoxy-3-(2-methylpropyl)-1H,2H,3H,4H,6H,7H,11bH-pyrido[2,1-a]isoquinolin-2-yl]methyl 3,5-dimethylpiperazine-1-carboxylate], in data set [1], the negative-log Ki (pKi) was > 8.00. Besides, the “S9 Assay (ability to form compound 1-1)” value in data set [2] is on record as “+”.

On to `COc1cc2c(cc1OC)[C@H]1C[C@@H](COC(=O)[C@H]3CCNC3)[C@H](CC(C)C)CN1CC2` [Compound 4-7, [(2R,3S,11bR)-9,10-dimethoxy-3-(2-methylpropyl)-1H,2H,3H,4H,6H,7H,11bH-pyrido[2,1-a]isoquinolin-2-yl]methyl (3S)-pyrrolidine-3-carboxylate], for which, in data set [1], the pKi was > 8.00. Moreover, the “S9 Assay (ability to form compound 1-1)” value in data set [2] is reported as “++”.

As to `COc1cc2c(cc1OC)[C@H]1C[C@@H](COC(=O)NCCCC(=O)O)[C@H](CC(C)C)CN1CC2` [Compound 5-3, 4-[({[(2R,3S,11bR)-9,10-dimethoxy-3-(2-methylpropyl)-1H,2H,3H,4H,6H,7H,11bH-pyrido[2,1-a]isoquinolin-2-yl]methoxy}carbonyl)amino]butanoic acid], in data set [1], the pKi was < 6.30. Besides, the “S9 Assay (ability to form compound 1-1)” value in data set [2] was “+”.

As to `COc1cc2c(cc1OC)[C@H]1C[C@@H](COC(=O)CC3CCCNC3)[C@H](CC(C)C)CN1CC2` (stereo partly drawn) [Compound 4-10, [(2R,3S,11bR)-9,10-dimethoxy-3-(2-methylpropyl)-1H,2H,3H,4H,6H,7H,11bH-pyrido[2,1-a]isoquinolin-2-yl]methyl 2-(piperidin-3-yl)acetate], the pKi in data set [1] is > 8.00. In addition, the “S9 Assay (ability to form compound 1-1)” value in data set [2] was “++”.

`COc1cc2c(cc1OC)[C@H]1C[C@@H](COC(=O)C3(OC)CCNCC3)[C@H](CC(C)C)CN1CC2` [Compound 4-22, [(2R,3S,11bR)-9,10-dimethoxy-3-(2-methylpropyl)-1H,2H,3H,4H,6H,7H,11bH-pyrido[2,1-a]isoquinolin-2-yl]methyl 4-methoxypiperidine-4-carboxylate]: the pKi in data set [1] is > 8.00. Besides, the “S9 Assay (ability to form compound 1-1)” value in data set [2] is “++”.

`COc1cc2c(cc1OC)[C@H]1C[C@@H](COC(=O)N(C)C(C(=O)O)C(C)C)[C@H](CC(C)C)CN1CC2` (stereo partly drawn) [Compound 5-32, 2-[({[(2R,3S,11bR)-9,10-dimethoxy-3-(2-methylpropyl)-1H,2H,3H,4H,6H,7H,11bH-pyrido[2,1-a]isoquinolin-2-yl]methoxy}carbonyl)(methyl)amino]-3-methylbutanoic acid]: in data set [1], the pKi was > 8.00. The “S9 Assay (ability to form compound 1-1)” value in data set [2] is on record as “++”.

For `COc1cc2c(cc1OC)[C@H]1C[C@@H](COC(=O)C(C)(C)CC(=O)O)[C@H](CC(C)C)CN1CC2` [Compound 3-11], the pKi in data set [1] is < 6.30. The “S9 Assay (ability to form compound 1-1)” value in data set [2] is “++”.

For the compound `COc1cc2c(cc1OC)[C@H]1C[C@@H](COC(=O)NCC(=O)O)[C@H](CC(C)C)CN1CC2` [Compound 5-30], the pKi in data set [1] is < 6.30. In data set [2], the “S9 Assay (ability to form compound 1-1)” value was “+”.

With `COc1cc2c(cc1OC)[C@H]1C[C@@H](COC(=O)N3CC(C(=O)O)C3)[C@H](CC(C)C)CN1CC2` [Compound 5-27, 1-({[(2R,3S,11bR)-9,10-dimethoxy-3-(2-methylpropyl)-1H,2H,3H,4H,6H,7H,11bH-pyrido[2,1-a]isoquinolin-2-yl]methoxy}carbonyl)azetidine-3-carboxylic acid], the pKi in data set [1] was < 6.30. In data set [2], the “S9 Assay (ability to form compound 1-1)” value is “+”.

As to `COc1cc2c(cc1OC)[C@H]1C[C@@H](COC(=O)NCC3(CC(=O)O)CCCCC3)[C@H](CC(C)C)CN1CC2` [Compound 5-34, 2-(1-{[({[(2R,3S,11bR)-9,10-dimethoxy-3-(2-methylpropyl)-1H,2H,3H,4H,6H,7H,11bH-pyrido[2,1-a]isoquinolin-2-yl]methoxy}carbonyl)amino]methyl}cyclohexyl)acetic acid], in data set [1], the pKi was 6.30 to 8.00. Moreover, the “S9 Assay (ability to form compound 1-1)” value in data set [2] was “+”.

Regarding `COc1cc2c(cc1OC)[C@H]1C[C@@H](COC(=O)NC(C)CC(=O)O)[C@H](CC(C)C)CN1CC2` (stereo partly drawn) [Compound 5-26, 3-[({[(2R,3S,11bR)-9,10-dimethoxy-3-(2-methylpropyl)-1H,2H,3H,4H,6H,7H,11bH-pyrido[2,1-a]isoquinolin-2-yl]methoxy}carbonyl)amino]butanoic acid], in data set [1], the negative-log Ki (pKi) was < 6.30. Besides, the “S9 Assay (ability to form compound 1-1)” value in data set [2] is “+”.

Compound `COc1cc2c(cc1OC)[C@H]1C[C@@H](COC(=O)N3CCN[C@@H](C(=O)O)C3)[C@H](CC(C)C)CN1CC2` [Compound 6-8, (2R)-4-({[(2R,3S,11bR)-9,10-dimethoxy-3-(2-methylpropyl)-1H,2H,3H,4H,6H,7H,11bH-pyrido[2,1-a]isoquinolin-2-yl]methoxy}carbonyl)piperazine-2-carboxylic acid] gave a negative logarithm of the Ki (pKi) in data set [1] of 6.30 to 8.00. The “S9 Assay (ability to form compound 1-1)” value in data set [2] is “+”.

As to `COc1cc2c(cc1OC)[C@H]1C[C@@H](COC(=O)CC3CCCN3)[C@H](CC(C)C)CN1CC2` (stereo partly drawn) [Compound 4-28, [(2R,3S,11bR)-9,10-dimethoxy-3-(2-methylpropyl)-1H,2H,3H,4H,6H,7H,11bH-pyrido[2,1-a]isoquinolin-2-yl]methyl 2-(pyrrolidin-2-yl)acetate], the pKi in data set [1] is > 8.00. The “S9 Assay (ability to form compound 1-1)” value in data set [2] was “++”.

For `COc1cc2c(cc1OC)[C@H]1C[C@@H](COC(=O)N3CCOC(CN(C)C)C3)[C@H](CC(C)C)CN1CC2` (stereo partly drawn) [Compound 5-4, [(2R,3S,11bR)-9,10-dimethoxy-3-(2-methylpropyl)-1H,2H,3H,4H,6H,7H,11bH-pyrido[2,1-a]isoquinolin-2-yl]methyl 2-[(dimethylamino)methyl]morpholine-4-carboxylate], the pKi in data set [1] is > 8.00. Moreover, in data set [2], the “S9 Assay (ability to form compound 1-1)” value was “+”.

In data set [1], `COc1cc2c(cc1OC)[C@H]1C[C@@H](COC(=O)C3CCCCC3C(=O)O)[C@H](CC(C)C)CN1CC2` (stereo partly drawn) [Compound 3-6, 2-({[(2R,3S,11bR)-9,10-dimethoxy-3-(2-methylpropyl)-1H,2H,3H,4H,6H,7H,11bH-pyrido[2,1-a]isoquinolin-2-yl]methoxy}carbonyl)cyclohexane-1-carboxylic acid] had a pKi of 6.30 to 8.00. For the same compound, in data set [2], the “S9 Assay (ability to form compound 1-1)” value was “++”.

`COc1cc2c(cc1OC)[C@H]1C[C@@H](COC(=O)NC[C@@H](CC(=O)O)CC(C)C)[C@H](CC(C)C)CN1CC2` [Compound 5-19, (3R)-3-{[({[(2R,3S,11bR)-9,10-dimethoxy-3-(2-methylpropyl)-1H,2H,3H,4H,6H,7H,11bH-pyrido[2,1-a]isoquinolin-2-yl]methoxy}carbonyl)amino]methyl}-5-methylhexanoic acid] showed a pKi in data set [1] of 6.30 to 8.00. Also, the “S9 Assay (ability to form compound 1-1)” value in data set [2] is on record as “+”.

Take `COc1cc2c(cc1OC)[C@H]1C[C@@H](COC(=O)C3CCNCC3)[C@H](CC(C)C)CN1CC2` [Compound 4-1, [(2R,3S,11bR)-9,10-dimethoxy-3-(2-methylpropyl)-1H,2H,3H,4H,6H,7H,11bH-pyrido[2,1-a]isoquinolin-2-yl]methyl piperidine-4-carboxylate]: the pKi in data set [1] is > 8.00. Also, in data set [2], the “S9 Assay (ability to form compound 1-1)” value was “++”.

Regarding `COc1cc2c(cc1OC)[C@H]1C[C@@H](COC(=O)NCC(C)C(=O)O)[C@H](CC(C)C)CN1CC2` (stereo partly drawn) [Compound 5-57, 3-[({[(2R,3S,11bR)-9,10-dimethoxy-3-(2-methylpropyl)-1H,2H,3H,4H,6H,7H,11bH-pyrido[2,1-a]isoquinolin-2-yl]methoxy}carbonyl)amino]-2-methyIpropanoic acid], in data set [1], the pKi is < 6.30. Besides, the “S9 Assay (ability to form compound 1-1)” value in data set [2] is recorded as “+”.

Broadly, the pKi is the negative decadic logarithm of the Ki, by convention in mol/L. Read a high pKi as a small Ki.
